# Test results reported in patent US4536335A, “Carbapenem antibiotics” (Bristol-Myers Company, priority 1983, dated 1985).
# Like-named read-outs stand apart in the source and are kept apart here.
# Experiments:
# S. pneumoniae A-9585 = test: In vitro MIC, tube dilution; assay type: cell-based; details: Streptococcus pneumoniae, A9585, Nutrient Broth, overnight incubation at 37° C., additional data table
# S. pyogenes A-9604 = test: In vitro MIC, tube dilution; assay type: cell-based; details: Streptococcus pyogenes, A9604, tube dilution, Nutrient Broth, overnight incubation at 37° C.; additional data table
# S. aureus A-9537 = test: In vitro MIC, tube dilution; assay type: cell-based; details: Staphylococcus aureus, overnight incubation at 37° C., additional data table
# [1] = system: S. aureus A-9606 (Pen-res.); test: In vitro MIC, tube dilution; assay type: cell-based; details: Staphylococcus aureus, Nutrient Broth, overnight incubation at 37° C., additional data table, read-out: MIC S. aureus (Pen-res.) A-9606
# S. faecalis A20688 = test: In vitro MIC, tube dilution; assay type: cell-based; details: Enterococcus faecalis, A20688, tube dilution, Nutrient Broth, overnight incubation at 37° C.; additional data table
# E. coli A15119 = test: In vitro MIC, tube dilution; assay type: cell-based; details: Escherichia coli, A15119, tube dilution, Nutrient Broth, overnight incubation at 37° C.; additional data table
# E. coli A20341-1 = test: In vitro MIC, tube dilution; assay type: cell-based; details: Escherichia coli, A203411, tube dilution, Nutrient Broth, overnight incubation at 37° C.; additional data table
# K. pneumoniae A-9664 = test: In vitro MIC, tube dilution; assay type: cell-based; details: Klebsiella pneumoniae, A9664, tube dilution, Nutrient Broth, overnight incubation at 37° C.; additional data table
# K. pneumoniae A20468 = test: In vitro MIC, tube dilution; assay type: cell-based; details: Klebsiella pneumoniae, A20468, tube dilution, Nutrient Broth, overnight incubation at 37° C.; additional data table
# P. mirabilis A-9900 = test: In vitro MIC, tube dilution; assay type: cell-based; details: Proteus mirabilis, A9900, tube dilution, Nutrient Broth, overnight incubation at 37° C.; additional data table
# P. vulgaris A21559 = test: In vitro MIC, tube dilution; assay type: cell-based; details: Proteus vulgaris, A21559, tube dilution, Nutrient Broth, overnight incubation at 37° C.; additional data table
# P. morganii A15153 = test: In vitro MIC, tube dilution; assay type: cell-based; details: Morganella morganii, A15153, tube dilution, Nutrient Broth, overnight incubation at 37° C.; additional data table; read-out: MIC M. morganii A15153
# P. rettgeri A22424 = test: In vitro MIC, tube dilution; assay type: cell-based; details: Providencia rettgeri, A22424, tube dilution, Nutrient Broth, overnight incubation at 37° C.; additional data table
# S. marcescens A20019 = test: In vitro MIC, tube dilution; assay type: cell-based; details: Serratia marcescens, A20019, tube dilution, Nutrient Broth, overnight incubation at 37° C.; additional data table
# E. cloacae A-9656 = test: In vitro MIC, tube dilution; assay type: cell-based; details: Enterobacter cloacae, A9656, tube dilution, Nutrient Broth, overnight incubation at 37° C.; additional data table
# P. aeruginosa A-9843A [2] = test: In vitro MIC, tube dilution; assay type: cell-based; details: Pseudomonas aeruginosa, A9843A, Nutrient Broth, overnight incubation at 37° C., additional data table
# P. aeruginosa A21213 = test: In vitro MIC, tube dilution; assay type: cell-based; details: Pseudomonas aeruginosa, A21213, tube dilution, Nutrient Broth, overnight incubation at 37° C.; additional data table
# E. cloacae A-9659 = test: In vitro MIC, tube dilution; assay type: cell-based; details: Enterobacter cloacae, A9659, tube dilution, Nutrient Broth, overnight incubation at 37° C.; additional data table
# From the text: N-formimidoyl thienamycin was included as a comparison compound.
# [3] = Blood levels in mice after intramuscular administration; assay type: in vivo; details: mouse, blood, im, 20 mg/kg, intramuscular dose of 20 mg/kg
# From the text: Compounds were solubilized in 0.1 M phosphate buffer pH 7. Values are fro
# a single test; 4 mice used per compound.
# *t1/2 refers to halflife in minutes
# **AUC refers to the area under the blood concentrationtime curve
# (§1) Also shown is the urinary recovery in the mice.
# Compounds were solubilized in 0.1 M phosphate buffer, pH 7.
# Values based on a single test; 4 mice per compound.
# *T1/2 refers to halflife in minutes
# [4] = Urinary recovery after intramuscular administration to mice; assay type: in vivo; details: mouse, urine, im, 20 mg/kg, intramuscular dose of 20 mg/kg, 0-6 hour collection, read-out: Urine Recovery
# Experimental: Compounds were solubilized in 0.1 M phosphate buffer pH 7. Values are from a single test; 4 mice per compound.
# as §1
# ***Recovery based on 0-6 hour collection
# [5] = Half-life in phosphate buffer solution; assay type: physicochemical
# Experimental: A solution of para-nitrobenzyl 3-[2-(N-methylthiomorpholinium diphenylphosphate)ethylthio]-6α-[1'-(R)-hydroxyethyl]-7-oxo-1-azabicyclo[3.2.0]hept-2-ene-2-carboxylate (1.31 g, 1.76 mmol) in 0.1 M pH 7.4 phosphate buffer (48.8 mL), tetrahydrofuran (20 mL) and diethyl ether (20 mL) was hydrogenated over 10% pd/C (1.5 g) in a Parr shaker for 1 h at 40 psi. The reaction mixture was diluted with diethyl ether (40 mL) and the phases were separated. The organic phase was washed with water (2×5 mL). The aqueous phases were combined, filtered through a #52 hardened filter paper, washed with diethyl ether (2×20 mL) and pumped under vacuum. The aqueous solution was poured on a silica gel reverse phase column and the desired carbapenem was eluted with 5% acetonitrile-water.
# To a solution of p-nitrobenzyl (5R,6S)-3-[2-(1-methylmorpholino)ethylthio]-6-[(R)-1-hydroxyethyl]-7-oxo-1-azabicyclo[3.2.0]hept-2-ene-2-carboxylate diphenylphosphate (0.360 g, 0.49 mmol) in 13 mL of phosphate buffer (0.05 M pH 7.4) was added 0.36 g of 10% palladium-on-charcoal, 20 mL of tetrahydrofuran and 20 mL of diethyl ether. This mixture was hydrogenated (Parr) at 32 psi for 1 h. The mixture was filtered through Celite and the filter pad was washed with H2 O and diethyl ether. The aqueous phase was separated and the pH was adjusted to 7.0 with additional pH 7.4 phosphate buffer. After removing residual organic solvents in vacuo the aqueous solution was applied to a C18 reverse-phase column.
# To a solution of (5R,6S)paranitrobenzyl 3-[2-(1,4-dimethyl-1-piperazinium)ethylthio]-6-[1-(R)-hydroxyethyl]-7-oxo- 1-azabicyclo[3.2.0]hept-2-ene-2-carboxylate diphenylphosphate (0.47 g, 0.623 mmol) in wet tetrahydrofuran (25 mL) was added diethyl ether (25 mL), potassium phosphate monobasic-sodium hydroxide buffer (13 mL, pH 7.22) and 10% palladium on charcoal (0.47 g). The resulting mixture was hydrogenated at 23° C. under 40 psi for 1 h. The two layers were separated and the organic layer was extracted with water (2×7 mL).
# To a cold (-10° C.) solution of (5R,6S)-3-[2 -(N-methyl-thiomorpholinium)ethylthio]-6-[1-(R)-hydroxyethyl]-7-oxo-1-azabicyclo(3.2.0)-hept-2-ene-2-carboxylate (608 mg, 1.65 mmol) in a 1:1 mixture of acetonitrile-water (9 mL) was added m-chloroperbenzoic acid (334.8 mg, 1.65 mmol) in small portion over a 1 hour period. The mixture was then diluted with water (15 mL) and washed with diethyl ether (3×15 mL).
# A mixture of (5R,6S) paranitrobenzyl 3-[2-(1,4,4-trimethyl-1-piperazinium)ethylthio]-6-[1R-hydroxyethyl]-7-oxo- 1-azabicyclo(3.2.0)hept-2-ene-2-carboxylate bischloride (0.40 g, 0.68 mmol), phosphate buffer (30 mL, 0.05M, pH 7.0), tetrahydrofuran (10 mL), ether (30 mL) and 10% palladium on charcoal (0.40 g) was hydrogenated at 23° C. under 35 psi for 1 h. The two phases were separated. The organic phase was extracted with water (10 mL).
# P. aeruginosa A-9843a [6] = test: Protective effect in the intramuscular treatment of infected mice (PD50); assay type: in vivo; details: Pseudomonas aeruginosa, A9843A, im, read-out: PD50/treatment, P. aeruginosa A9843A
# Experimental: The PD50 (dose in mg/kg required to give protection to 50% of the infected mice) is indicated.
# Treatment Schedule: Mice were treated i.m. with drugs 0 and 2 hours post-infection; 5 mice per dose were used for each test
# *For compound of Ex. 2, mice were infected i.p. with 2 × 10^9
# compounds of Ex. 4 and 5, mice were infected i.p. with ~9 ×
# were treated i.m. with drugs 0 and 2 h postinfection.
# P. aeruginosa A20481 = test: as above; assay type: in vivo; details: Pseudomonas aeruginosa, A20481, im; mice infected i.p. (Ex. 2: 1 × 10^5 organisms), treated i.m. 0 and 2 h postinfection
# [7] = A9537, 50% serum, tube dilution, read-out: MIC S. aureus-50% serum A-9537
# [8] = A9537, tube dilution, Nutrient Broth, read-out: MIC S. aureus A-9537
Compound,MIC (S. pneumoniae A-9585),MIC (S. pyogenes A-9604),MIC (S. aureus A-9537; [7]),MIC (S. aureus A-9537; [8]),MIC [1],MIC (S. faecalis A20688),MIC (E. coli A15119),MIC (E. coli A20341-1),MIC (K. pneumoniae A-9664),MIC (K. pneumoniae A20468),MIC (P. mirabilis A-9900),MIC (P. vulgaris A21559),MIC (P. morganii A15153),MIC (P. rettgeri A22424),MIC (S. marcescens A20019),MIC (E. cloacae A-9656),MIC (P. aeruginosa A-9843A [2]),MIC (P. aeruginosa A21213),MIC (E. cloacae A-9659),also measured
"C[C@@H](O)[C@H]1C(=O)N2C(C(=O)[O-])=C(SCC[N+]3(C)CCOCC3)C[C@H]12 [Example 3, (5R,6S)-3-[2-(1-methylmorpholino)ethylthio]-6-[(R)-1-hydroxyethyl]-7-oxo-1-azabicyclo[3.2.0]hept-2-ene-2-carboxylate]",0.03 µg/mL,0.03 µg/mL,0.13 µg/mL,0.03 µg/mL,0.03 µg/mL,0.5 µg/mL,0.03 µg/mL,0.03 µg/mL,0.13 µg/mL,0.25 µg/mL,0.13 µg/mL,0.03 µg/mL,0.13 µg/mL,0.5 µg/mL,0.06 µg/mL,0.5 µg/mL,63 µg/mL,8 µg/mL,0.25 µg/mL,"Cmax [3]: 16200 ng/mL; AUC ([3]; read-out: Blood AUC): 4800 ng·h/mL; half-life ([3]; read-out: Blood T1/2): 8 min; dose excreted at 6 h [4]: 15 ± 3%; half-life ([5]; phosphate buffer, pH 7.4, pH 7.4, 36.8° C., read-out: t1/2 (solution stability) (converted)): 18.5 h"
"C[C@@H](O)[C@H]1C(=O)N2C(C(=O)[O-])=C(SCC[N+]3(C)CCSCC3)C[C@H]12 [Example 2, 3-[2-(N-Methyl-thiomorpholinium)ethylthio]-6α-[1'-(R)-hydroxyethyl]-7-oxo-1-azabicyclo[3.2.0]-hept-2-ene-2-carboxylate]",0.001 µg/mL,0.002 µg/mL,0.016 µg/mL,0.008 µg/mL,0.016 µg/mL,0.25 µg/mL,0.016 µg/mL,0.03 µg/mL,0.06 µg/mL,0.13 µg/mL,0.06 µg/mL,0.03 µg/mL,0.06 µg/mL,0.13 µg/mL,0.06 µg/mL,0.13 µg/mL,32 µg/mL,8 µg/mL,0.13 µg/mL,"ED50 (P. aeruginosa A-9843a [6]): 4.7 mg/kg; ED50 (P. aeruginosa A20481): 33 mg/kg; half-life ([5]; 0.1 m phosphate buffer, pH 7, 0.1 M pH 7 phosphate buffer, 37° C., read-out: T1/2 (solution stability) (converted)): 17.7 h"
